Target: T1, human TGR5 (Homo sapiens, UniProt Q8TDU6)
T1 construct: expressed in transfected cells; host or cells: HEK293
T1 sequence (Q8TDU6 1-330): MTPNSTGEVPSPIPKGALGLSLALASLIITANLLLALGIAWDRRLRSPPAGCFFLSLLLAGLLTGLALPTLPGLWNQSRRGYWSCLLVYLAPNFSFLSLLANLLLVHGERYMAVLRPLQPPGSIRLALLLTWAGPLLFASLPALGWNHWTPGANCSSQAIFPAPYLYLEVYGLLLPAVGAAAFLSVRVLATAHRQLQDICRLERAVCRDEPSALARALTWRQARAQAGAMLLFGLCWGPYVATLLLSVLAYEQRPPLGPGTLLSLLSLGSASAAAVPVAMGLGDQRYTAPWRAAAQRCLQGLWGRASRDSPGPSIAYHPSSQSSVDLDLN
Experiment: Cell-based TGR5 assay (cAMP generation, HTRF)
Conditions: HEK293 cells stably transfected with human TGR5; cAMP by HTRF; 30 minutes at 37° C.; read-out: pEC50 Human TGR5 (converted)
How it was run: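 Read-out was HTRF detection of cAMP, converted to concentration via a standard curve and fitted (3-parameter logistic) for pEC50 and maximal response. Agonist stimulation used HEK293 cells stably transfected with human TGR5, incubated 30 min at 37° C in IBMX-containing buffer at 0.05 nM to 10 μM compound.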

SMILES | EC50 [nM]
Cc1cc(CNC2(c3cnccc3-c3ccccc3OC3CC3)CC2)c(Cl)cc1CCCCC(=O)NC[C@H](O)[C@@H](O)[C@H](O)[C@H](O)CO [Compound I-142, 5-{5-chloro-4-[({1-[4-(2-cyclopropoxyphenyl)pyridin-3-yl]cyclopropyl}amino)methyl]-2-methylphenyl}-N-[(2S,3R,4R,5R)-2,3,4,5,6-pentahydroxyhexyl]pentanamide] | < 100
CN(CCCCNC(=O)NC[C@H](O)[C@@H](O)[C@H](O)[C@H](O)CO)S(=O)(=O)c1ccc(Cl)c(COC2(c3cnccc3-c3ccccc3OC3COC3)CC2)c1 [Compound I-464, 1-(4-{N-methyl4-chloro-3-[(1-{4-[2-(oxetan-3-yloxy)phenyl]pyridin-3-yl}cyclopropoxy)methyl]benzenesulfonamido}butyl)-3-[(2S,3R,4R,5R)-2,3,4,5,6-pentahydroxyhexyl]urea] | < 100
C[C@H](CCCCC(=O)N(C)C[C@H](O)[C@@H](O)[C@H](O)[C@H](O)CO)c1ccc(Cl)c(CNC2(c3cnccc3-c3ccccc3OC3CC3)CC2)c1 (single isomer, unassigned) [Compound I-329] | < 100
O=C([C@@H](O)[C@@H](O)[C@H](O)[C@@H](O)CO)N(CCCCc1cc(Cl)c(COC2(c3cnccc3-c3ccccc3OC3CC3)CC2)cc1Cl)CCOCCO [Compound I-85] | < 100
CNC(=O)CN(C[C@H](O)[C@@H](O)[C@H](O)[C@H](O)CO)C(=O)CCCC(C)c1ccc(Cl)c(CNC2(c3cnccc3-c3ccccc3OC3CC3)CC2)c1 (stereo partly drawn) [Compound I-336, 5-{4-chloro-3-[({1-[4-(2-cyclopropoxyphenyl)pyridin-3-yl]cyclopropyl}amino)methyl]phenyl}-N-[(methylcarbamoyl)methyl]-N-[(2S,3R,4R,5R)-2,3,4,5,6-pentahydroxyhexyl]hexanamide] | < 100
O=C([C@@H](O)[C@@H](O)[C@H](O)[C@@H](O)CO)N(CCCSc1ccc(Cl)c(CNC2(c3cnccc3-c3ccccc3OC3CC3)CC2)c1)CCOCCO [Compound I-526, (2S,3S,4R,5S)-N-[3-({4-chloro-3-[({1-[4-(2-cyclopropoxyphenyl)pyridin-3-yl]cyclopropyl}amino)methyl]phenyl}sulfanyl)propyl]-2,3,4,5,6-pentahydroxy-N-[2-(2-hydroxyethoxy)ethyl]hexanamide] | 126 to 1000
Cc1cc(COC2(c3cnccc3-c3ccccc3OC3CC3)CC2)c(C)cc1CCCCNC(=O)NC[C@H](O)[C@@H](O)[C@H](O)[C@H](O)CO (stereo in doubt) [Compound I-150, 1-{4-[4-({1-[4-(2-cyclopropoxyphenyl)pyridin-3-yl]cyclopropoxy}methyl)-2,5-dimethylphenyl]butyl}-3-[(2S,3R,4R,5R)-2,3,4,5,6-pentahydroxyhexyl]urea] | < 100
O=C(CCN(CCC(=O)NC[C@H](O)[C@@H](O)[C@H](O)[C@H](O)CO)C(=O)CCCCc1cc(Cl)c(CNC2(c3cnccc3-c3ccccc3OC3CC3)CC2)cc1Cl)NC[C@H](O)[C@@H](O)[C@H](O)[C@H](O)CO (stereo in doubt) [Compound I-170, 5-{2,5-dichloro-4-[({1-[4-(2-cyclopropoxyphenyl)pyridin-3-yl]cyclopropyl}amino)methyl]phenyl}-N,N-bis(2-{[(2S,3R,4R,5R)-2,3,4,5,6-pentahydroxyhexyl]carbamoyl}ethyl) pentanamide] | 1260 to 10000
O=CN(CCCCc1cc(Cl)c(COC2(c3cnccc3-c3ccccc3OC3CC3)CC2)cc1Cl)C[C@H](O)[C@@H](O)[C@H](O)[C@H](O)CO [Compound I-80, N-(4-(2,5-dichloro-4-((1-(4-(2-cyclopropoxyphenyl)pyridin-3-yl)cyclopropoxy)methyl)phenyl)butyl)-N-((2S,3R,4R,5R)-2,3,4,5,6-pentahydroxyhexyl)formamide] | < 100
O=C([C@@H](O)[C@@H](O)[C@H](O)[C@@H](O)CO)N(CCCSc1ccc(Cl)c(CNC2(c3cnccc3-c3ccccc3OC3CC3)CC2)c1)CCN1CCS(=O)(=O)CC1 [Compound I-530, (2S,3S,4R,5S)-N-[3-({4-chloro-3-[({1-[4-(2-cyclopropoxyphenyl)pyridin-3-yl]cyclopropyl)amino)methyl]phenyl}sulfanyl)propyl]-N-[2-(1,1-dioxo-1λ^6,4-thiomorpholin-4-yl)ethyl]-2,3,4,5,6-pentahydroxyhexanamide] | 126 to 1000
O=C([C@H](O)[C@@H](O)[C@H](O)[C@H](O)CO)N(CCCCO)CCCCc1cc(Cl)c(COC2(c3cnccc3-c3ccccc3OC3CC3)CC2)cc1Cl [Compound I-81, (2R,3S,4R,5R)-N-(4-(2,5-dichloro-4-((1-(4-(2-cyclopropoxyphenyl)pyridin-3-yl)cyclopropoxy)methyl)phenyl)butyl)-2,3,4,5,6-pentahydroxy-N-(4-hydroxybutyl)hexanamide] | < 100
Cc1cc(COC2(c3cnccc3-c3ccccc3OC3CC3)CC2)c(Cl)cc1CCCCNC(=O)NC[C@H](O)[C@@H](O)[C@H](O)[C@H](O)CO [Compound I-65, 1-[4-[5-chloro-4-([1-[4-(2-cyclopropoxyphenyl)pyridin-3-yl]cyclopropoxy]methyl)-2-methylphenyl]butyl]-3-[(2S,3R,4R,5R)-2,3,4,5,6-pentahydroxyhexyl]urea] | < 100
O=C(O)CN(C[C@H](O)[C@@H](O)[C@H](O)[C@H](O)CO)C(=O)CCCCc1cc(Cl)c(COC2(c3cnccc3-c3ccccc3OC3CC3)CC2)cc1Cl [Compound I-87, 2-(5-(2,5-dichloro-4-((1-(4-(2-cyclopropoxyphenyl)pyridin-3-yl)cyclopropoxy)methyl)phenyl)-N-((2S,3R,4R,5R)-2,3,4,5,6-pentahydroxyhexyl)pentanamido)acetic acid] | < 100
NC(=O)CCN(C[C@H](O)[C@@H](O)[C@H](O)[C@H](O)CO)C(=O)CCCCc1cc(Cl)c(COC2(c3cnccc3-c3ccccc3OC3CC3)CC2)cc1Cl [Compound I-223, N-(2-carbamoylethyl)-5-[2,5-dichloro-4-({1-[4-(2-cyclopropoxyphenyl)pyridin-3-yl]cyclopropoxy}methyl)phenyl]-N-[(2S,3R,4R,5R)-2,3,4,5,6-pentahydroxyhexyl]pentanamide] | < 100

Results, then the molecule that gave them:

EC50 [nM] | SMILES
< 100 | O=C(NCCCCSc1ccc(Cl)c(COC2(c3cnccc3-c3ccccc3OC3CC3)CC2)c1)NC[C@H](O)[C@@H](O)[C@H](O)[C@H](O)CO [Compound I-621, 1-(4-{[4-chloro-3-({1-[4-(2-cyclopropoxyphenyl)pyridin-3-yl]cyclopropoxy}methyl)phenyl]sulfanyl}butyl)-3-[(2S,3R,4R,5R)-2,3,4,5,6-pentahydroxyhexyl]urea]
< 100 | CN(C[C@H](O)[C@@H](O)[C@H](O)[C@H](O)CO)C(=O)CCCCSc1ccc(Cl)c(CNC2(c3cnccc3-c3ccccc3OC3CC3)CC2)c1 [Compound I-678, 5-({4-chloro-3-[({1-[4-(2-cyclopropoxyphenyl)pyridin-3-yl]cyclopropyl}amino)methyl]phenyl}sulfanyl)-N-methyl-N-[(2S,3R,4R,5R)-2,3,4,5,6-pentahydroxyhexyl]pentanamide]
< 100 | Cc1ccc(SCCCC(=O)NC[C@H](O)[C@@H](O)[C@H](O)[C@H](O)CO)cc1COC1(c2cnccc2-c2ccccc2OC2CC2)CC1 [Compound I-651, 4-{[3-({1-[4-(2-cyclopropoxyphenyl)pyridin-3-yl]cyclopropoxy}methyl)-4-methylphenyl]sulfanyl}-N-[(2S,3R,4R,5R)-2,3,4,5,6-pentahydroxyhexyl]butanamide]
126 to 1000 | O=C(NCCCCNC(=O)NCCOCCSc1ccc(Cl)c(COC2(c3cnccc3-c3ccccc3OC3CC3)CC2)c1)NCCOCCSc1ccc(Cl)c(COC2(c3cnccc3-c3ccccc3OC3CC3)CC2)c1 [Compound I-638, 3-[2-(2-{[4-chloro-3-({1-[4-(2-cyclopropoxyphenyl)pyridin-3-yl]cyclopropoxy}methyl)phenyl]sulfanyl}ethoxy)ethyl]-1-[4-({[2-(2-{[4-chloro-3-({1-[4-(2-cyclopropoxyphenyl)pyridin-3-yl]cyclopropoxy}methyl)phenyl]sulfanyl}ethoxy)ethyl]carbamoyl}amino)butyl]urea]
126 to 1000 | O=C(NCCCCNS(=O)(=O)c1ccc(Cl)c(COC2(c3c[n+]([O-])ccc3-c3ccccc3OC3CC3)CC2)c1)[C@@H](O)[C@@H](O)[C@H](O)[C@@H](O)CO [Compound I-775, 3-(1-((2-chloro-5-(N-(4-((2S,3S,4R,5S)-2,3,4,5,6-pentahydroxyhexanamido)butyl)sulfamoyl)benzyl)oxy)cyclopropyl)-4-(2-cyclopropoxyphenyl)pyridine 1-oxide]
< 100 | CCN(C[C@H](O)[C@@H](O)[C@H](O)[C@H](O)CO)C(=O)CCCSc1ccc(Cl)c(COC2(c3cnccc3-c3ccccc3OC3CC3)CC2)c1 [Compound I-659, 4-{[4-chloro-3-({1-[4-(2-cyclopropoxyphenyl)pyridin-3-yl]cyclopropoxy}methyl)phenyl]sulfanyl}-N-ethyl-N-[(2S,3R,4R,5R)-2,3,4,5,6-pentahydroxyhexyl]butanamide]
< 100 | CS(=O)(=O)NCCCCN(CCCSc1ccc(Cl)c(CNC2(c3cnccc3-c3ccccc3OC3CC3)CC2)c1)C(=O)[C@@H](O)[C@@H](O)[C@H](O)[C@@H](O)CO [Compound I-599, (2S,3S,4R,5S)-N-[3-({4-chloro-3-[({1-[4-(2-cyclopropoxyphenyl)pyridin-3-yl]cyclopropyl}amino)methyl]phenyl}sulfanyl)propyl]-2,3,4,5,6-pentahydroxy-N-(4-methanesulfonamidobutyl) hexanamide]

Reference: US12084472B2 (Ardelyx, Inc., priority 2015, dated 2024)
